Source: patent publication US11000033B2, “Ketone or oxime compound, and herbicide” (NISSAN CHEMICAL CORPORATION, priority 2014, dated 2021)

Columns and labels:
Type in all cases: in vivo
transplanted rice plant = test: Test Example 1: effect on crop, application before weed generation in submerged conditions (symbol a); conditions: application herbicide amount 320 g/ha
Procedure, shortened: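 Rice at 2.5 leaf stage transplanted into submerged soil (4 cm depth) sown with three weed species; herbicide applied before weed emergence.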

Scirpus juncoides = test: Test Example 2: herbicidal activity, application during weed generation in submerged conditions (symbol B); conditions: Table 23; application herbicide amount 320 g/ha; grade 0-5 by criteria of Test Example 1
Procedure, shortened: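 Seeds sown in flooded alluvial soil (4 cm water) were grown in a 25-30° C greenhouse. At the one- to two-leaf stage, diluted emulsion of compound was applied to the water surface at a predetermined rate. Effect was scored 3 weeks later.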

Digitaria ciliaris = test: Test Example 4: herbicidal effect by soil treatment (symbol F)
Procedure, shortened: (§1)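 Seeds were sown in sterilized diluvial soil, covered with about 1.5 cm of soil, and the soil surface was sprayed with a water-diluted emulsion of the compound at a predetermined rate. Plants grew in a greenhouse at 25° C. to 30° C.; effects were scored visually 3 weeks after application.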

Alopecurus myosuroides [1] = test: Test Example 4: herbicidal effect by soil treatment (symbol J)
Procedure, shortened: as §1

corn [2] = test: Test Example 4: effect on crop by soil treatment (symbol c); conditions: for c: corn, effect on crop grade: application herbicide amount 320 g/ha
Procedure, shortened: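 Crop seed is sown in spots together with several weed species in a box of sterilized diluvial soil. It is covered by about 1.5 cm of soil and kept in a greenhouse held between 25° C. and 30° C.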

rice = test: Test Example 4: effect on crop by soil treatment (symbol b); conditions: for b: directly sowed rice plant, effect on crop grade: application herbicide amount 320 g/ha
Procedure, shortened: (§2)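 Plants grew in a 25° C. to 30° C. greenhouse after spot-sowing of seeds, including beet, rapeseed, wheat and rice, into sterilized diluvial soil under roughly 1.5 cm of cover soil.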

rapeseed = test: Test Example 4: effect on crop by soil treatment (symbol g); conditions: for g: rapeseed, effect on crop grade: application herbicide amount 320 g/ha
Procedure, shortened: as §2

Alopecurus myosuroides [3] = test: Test Example 5: herbicidal effect by foliage application, plastic box (symbol J); conditions: 320 g/ha, 3 weeks after application
Procedure, shortened: (§3)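 Emulsion formulation, diluted with water to the intended rate, was applied uniformly to leaves by small sprayer. Recipients were 14-day greenhouse-grown seedlings (25° C. to 30° C.). Assessment followed at 3 weeks.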

Lolium multiflorum Lam. = test: Test Example 5: herbicidal effect by foliage application, plastic box (symbol K); conditions: 320 g/ha, 3 weeks after application
Procedure, shortened: as §3

Veronica persica = test: Test Example 5: herbicidal effect by foliage application, plastic box (symbol R); conditions: 320 g/ha, 3 weeks after application
Procedure, shortened: as §3

corn [4] = test: Test Example 5: effect on crop by foliage application, plastic box (symbol c); conditions: 320 g/ha, 3 weeks after application
Procedure, shortened: (§4)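 Crop and weed seeds sown in spots in sterilized diluvial soil in plastic boxes and covered with about 1.5 cm soil. Plants raised in a greenhouse at 25° C. to 30° C. for foliar application.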

wheat = test: Test Example 5: effect on crop by foliage application, plastic box (symbol e); conditions: 320 g/ha, 3 weeks after application
Procedure, shortened: as §4

beet = test: Test Example 5: effect on crop by foliage application, plastic box (symbol f); conditions: 320 g/ha, 3 weeks after application
Procedure, shortened: as §4

[5] = application herbicide amount 320 g/ha

| SMILES | Effect grade on crop, a: transplanted rice plant (transplanted rice plant) | Herbicidal effect grade, B: Scirpus juncoides (Scirpus juncoides) | F: Digitaria ciliaris, herbicidal effect grade (Digitaria ciliaris; [5]) | J: Alopecurus myosuroides, herbicidal effect grade (Alopecurus myosuroides [1]; [5]) | c: corn, effect on crop grade (corn [2]) | b: directly sowed rice plant, effect on crop grade (rice) | g: rapeseed, effect on crop grade (rapeseed) | J: Alopecurus myosuroides, herbicidal effect grade (Alopecurus myosuroides [3]) | K: Lolium multiflorum Lam., herbicidal effect grade (Lolium multiflorum Lam.) | R: Veronica persica, herbicidal effect grade (Veronica persica) | c: corn, effect on crop grade (corn [4]) | e: wheat, effect on crop grade (wheat) | f: beet, effect on crop grade (beet) | F: Digitaria ciliaris, herbicidal effect grade (Digitaria ciliaris; 320 g/ha) | J: Alopecurus myosuroides, herbicidal effect grade (Alopecurus myosuroides [1]; 320 g/ha) | c: corn, effect grade on crop (corn [2]; 320 g/ha) | b: directly sowed rice plant, effect grade on crop (rice; 320 g/ha) | g: rapeseed, effect grade on crop (rapeseed; 320 g/ha) |
| --- | --- | --- | --- | --- | --- | --- | --- | --- | --- | --- | --- | --- | --- | --- | --- | --- | --- | --- |
| CCc1cc(Br)cc(C)c1C1=C(O)CC(C(C(=O)OC)C(C)=NOC)C1=O (stereo not drawn) [6-002] | 3 (Herbicidal ratio of 40% or higher and lower than 70%) | 0 (Herbicidal ratio of 5% or lower (almost no effect)) | 2 (Herbicidal ratio of 20% or higher and lower than 40%) | 2 (Herbicidal ratio of 20% or higher and lower than 40%) | 0 (Herbicidal ratio of 5% or lower (almost no effect)) | 5 (Herbicidal ratio of 90% or more (almost completely withered)) | 0 (Herbicidal ratio of 5% or lower (almost no effect)) | 5 (Herbicidal ratio of 90% or more (almost completely withered)) | 5 (Herbicidal ratio of 90% or more (almost completely withered)) | 0 (Herbicidal ratio of 5% or lower (almost no effect)) | 5 (Herbicidal ratio of 90% or more (almost completely withered)) | 0 (Herbicidal ratio of 5% or lower (almost no effect)) | 0 (Herbicidal ratio of 5% or lower (almost no effect)) | – | – | – | – | – |
| COC(=O)C(C(C)=O)C1CC(O)=C(c2c(C)cc(C)cc2C)C1=O (stereo not drawn) [2-003] | 0 (Herbicidal ratio of 5% or lower (almost no effect)) | 0 (Herbicidal ratio of 5% or lower (almost no effect)) | – | – | – | – | – | 5 (Herbicidal ratio of 90% or more (almost completely withered)) | 5 (Herbicidal ratio of 90% or more (almost completely withered)) | 3 (Herbicidal ratio of 40% or higher and lower than 70%) | 3 (Herbicidal ratio of 40% or higher and lower than 70%) | 0 (Herbicidal ratio of 5% or lower (almost no effect)) | 0 (Herbicidal ratio of 5% or lower (almost no effect)) | 4 (Herbicidal ratio of 70% or higher and lower than 90%) | 4 (Herbicidal ratio of 70% or higher and lower than 90%) | 0 (Herbicidal ratio of 5% or lower (almost no effect)) | 2 (Herbicidal ratio of 20% or higher and lower than 40%) | 0 (Herbicidal ratio of 5% or lower (almost no effect)) |
| CON=C(C)CC1CC(O)=C(c2c(C)cc(Br)cc2C)C1=O (stereo not drawn) [6-003] | 5 (Herbicidal ratio of 90% or more (almost completely withered)) | 1 (Herbicidal ratio of 5% or higher and lower than 20%) | 5 (Herbicidal ratio of 90% or more (almost completely withered)) | 5 (Herbicidal ratio of 90% or more (almost completely withered)) | 4 (Herbicidal ratio of 70% or higher and lower than 90%) | 5 (Herbicidal ratio of 90% or more (almost completely withered)) | 4 (Herbicidal ratio of 70% or higher and lower than 90%) | 5 (Herbicidal ratio of 90% or more (almost completely withered)) | 5 (Herbicidal ratio of 90% or more (almost completely withered)) | 0 (Herbicidal ratio of 5% or lower (almost no effect)) | 5 (Herbicidal ratio of 90% or more (almost completely withered)) | 0 (Herbicidal ratio of 5% or lower (almost no effect)) | 0 (Herbicidal ratio of 5% or lower (almost no effect)) | – | – | – | – | – |
| CC#Cc1cc(C)c(C2=C(O)CC(CC(C)=NOC)C2=O)c(C)c1 (mixture of isomers) [6-009] | 3 (Herbicidal ratio of 40% or higher and lower than 70%) | 0 (Herbicidal ratio of 5% or lower (almost no effect)) | 5 (Herbicidal ratio of 90% or more (almost completely withered)) | 5 (Herbicidal ratio of 90% or more (almost completely withered)) | 5 (Herbicidal ratio of 90% or more (almost completely withered)) | 5 (Herbicidal ratio of 90% or more (almost completely withered)) | 4 (Herbicidal ratio of 70% or higher and lower than 90%) | 5 (Herbicidal ratio of 90% or more (almost completely withered)) | 5 (Herbicidal ratio of 90% or more (almost completely withered)) | – | 5 (Herbicidal ratio of 90% or more (almost completely withered)) | 5 (Herbicidal ratio of 90% or more (almost completely withered)) | 2 (Herbicidal ratio of 20% or higher and lower than 40%) | – | – | – | – | – |
| CON=C(C)CC1CC(O)=C(c2c(C)cc(-c3ccccc3)cc2C)C1=O (stereo not drawn) [6-015] | 5 (Herbicidal ratio of 90% or more (almost completely withered)) | 5 (Herbicidal ratio of 90% or more (almost completely withered)) | 5 (Herbicidal ratio of 90% or more (almost completely withered)) | 5 (Herbicidal ratio of 90% or more (almost completely withered)) | 5 (Herbicidal ratio of 90% or more (almost completely withered)) | 5 (Herbicidal ratio of 90% or more (almost completely withered)) | 4 (Herbicidal ratio of 70% or higher and lower than 90%) | 5 (Herbicidal ratio of 90% or more (almost completely withered)) | 5 (Herbicidal ratio of 90% or more (almost completely withered)) | – | 5 (Herbicidal ratio of 90% or more (almost completely withered)) | 0 (Herbicidal ratio of 5% or lower (almost no effect)) | 0 (Herbicidal ratio of 5% or lower (almost no effect)) | – | – | – | – | – |
| CON=C(C)CC1CC(O)=C(c2c(C)cc(-n3cc(Cl)cn3)cc2C)C1=O (mixture of isomers) [6-004] | 5 (Herbicidal ratio of 90% or more (almost completely withered)) | 4 (Herbicidal ratio of 70% or higher and lower than 90%) | 5 (Herbicidal ratio of 90% or more (almost completely withered)) | 5 (Herbicidal ratio of 90% or more (almost completely withered)) | 2 (Herbicidal ratio of 20% or higher and lower than 40%) | 5 (Herbicidal ratio of 90% or more (almost completely withered)) | 4 (Herbicidal ratio of 70% or higher and lower than 90%) | 5 (Herbicidal ratio of 90% or more (almost completely withered)) | 5 (Herbicidal ratio of 90% or more (almost completely withered)) | 3 (Herbicidal ratio of 40% or higher and lower than 70%) | 4 (Herbicidal ratio of 70% or higher and lower than 90%) | 0 (Herbicidal ratio of 5% or lower (almost no effect)) | – | – | – | – | – | – |
| CON=C(C)CC1CC(O)=C(c2c(C)cc(C#CC3CC3)cc2C)C1=O (mixture of isomers) [6-010] | 5 (Herbicidal ratio of 90% or more (almost completely withered)) | 3 (Herbicidal ratio of 40% or higher and lower than 70%) | 5 (Herbicidal ratio of 90% or more (almost completely withered)) | 5 (Herbicidal ratio of 90% or more (almost completely withered)) | 4 (Herbicidal ratio of 70% or higher and lower than 90%) | 5 (Herbicidal ratio of 90% or more (almost completely withered)) | 0 (Herbicidal ratio of 5% or lower (almost no effect)) | 5 (Herbicidal ratio of 90% or more (almost completely withered)) | 4 (Herbicidal ratio of 70% or higher and lower than 90%) | – | 4 (Herbicidal ratio of 70% or higher and lower than 90%) | 4 (Herbicidal ratio of 70% or higher and lower than 90%) | 0 (Herbicidal ratio of 5% or lower (almost no effect)) | – | – | – | – | – |
